System: HBV
Experiment: HepAD38 antiviral assay: reduction of viral product accumulation (virion DNA by qPCR, HBsAg or HBeAg by ELISA)
Type: cell-based
Settings: Hepatitis B virus, 120 h; HepAD38 cells, five days after compound addition; 50% reduction of viral product accumulation relative to no drug controls; read-out: HepAD38 EC50
Procedure: Methods: HepAD38 cells are maintained as previously reported (Ladner et al, Antimicrob. Agents Chemother. 1997, […], 1715). Briefly, cells are passaged upon attaining confluency in DMEM/F12 media in the presence of 10% FBS, Penn/Strep, 250 μg/mL G418, and 1 ug/ml tetracycline. Novel compounds are screened by first washing cells three times with PBS to remove tetracycline, and plating in 96 well plates at 35,000 cells/well. Compounds dissolved in DMSO are then diluted 1:200 into wells containing cells. Five days after compound addition, material is harvested for analysis. For an extended 8 day analysis, cells are plated and treated as described above, but media and compound are refreshed on d2 and d5 post initial treatment.
On harvest day, virion DNA is obtained by lysing with Sidestep Lysis and Stabilization Buffer and then quantified via quantitative real time PCR. Commercially available ELISA kits are used to quantitate the viral proteins HBsAg (Alpco) or HbeAg (US Biological) by following the manufacturer's recommended protocol after diluting samples to match the linear range of their respective assays. Irrespective of readout, compound concentrations that reduce viral product accumulation in the cell lysates or supernatants by 50% relative to no drug controls (EC50) are reported; EC50 ranges are as follows: A<1 μM; B 1-10 μM; C>10 μM.

Compound | EC50
O=S(=O)(c1cc(-c2nc(-c3ccc(Br)c(F)c3)c[nH]2)ccc1Cl)N1CC2COCC2C1 (stereo not shown) [Example 163] | < 1000 nM
O=S(=O)(c1cc(-c2nc(-c3ccc(Br)c(F)c3)c[nH]2)ccc1Cl)N1CCC[C@@H](O)CC1 [Example 234] | < 1000 nM
CC(C)(C)CC(=O)NCCCNS(=O)(=O)c1cc(-c2nc(-c3ccc(Br)c(F)c3)c[nH]2)ccc1Cl [Example 141] | < 1000 nM
O=S(=O)(c1cc(-c2nc(-c3ccc(Br)c(F)c3)c[nH]2)ccc1Cl)N1C[C@H](O)[C@@H](O)C1 [Example 259] | < 1000 nM
N#Cc1cc(-c2c[nH]c(-c3ccc(Cl)c(S(=O)(=O)N4CCC(O)CC4)c3)n2)ccc1C1CC1 [Example 156] | 1000 to 10000 nM
O=S(=O)(c1cc(-c2nc(-c3cscn3)c[nH]2)ccc1Cl)N1CCC(O)CC1 [Example 80] | > 10000 nM
COC(=O)OCCCNS(=O)(=O)c1cc(-c2nc(-c3ccc(Br)c(F)c3)c[nH]2)ccc1Cl [Example 177] | < 1000 nM
O=P(O)(O)OC1CCN(S(=O)(=O)c2cc(-c3nc(-c4ccc(F)c(Br)c4)c[nH]3)ccc2Cl)CC1 [Example 207] | 1000 to 10000 nM
O=S(=O)(c1cc(-c2nc(-c3cc(F)c(F)c(Cl)c3)c[nH]2)ccc1Cl)N1CCC(O)CC1 [Example 78] | > 10000 nM
O=S(=O)(c1cc(-c2ncc(-c3ccc(Br)c(F)c3)[nH]2)ccc1Cl)N1CCCCC(CO)C1 (stereo not shown) [Example 269] | < 1000 nM
O=S(=O)(c1cc(-c2nc(-c3ccc(Br)c(F)c3)c[nH]2)ccc1Cl)N1CCn2c(nnc2C(F)(F)F)C1 [Example 265] | < 1000 nM
CNC(=O)OCCCNS(=O)(=O)c1cc(-c2nc(-c3ccc(Br)c(F)c3)c[nH]2)ccc1Cl [Example 186] | < 1000 nM
O=S(=O)(c1cc(-c2nc(-c3ccc(Br)c(F)c3)c[nH]2)ccc1Cl)N1CCCC[C@H](O)C1 [Example 232] | < 1000 nM
O=S(=O)(c1cc(-c2nc(-c3ccc(Br)c(F)c3)c[nH]2)ccc1Cl)N1CCN([C@@H]2CCCC[C@H]2O)CC1 [Example 250] | < 1000 nM
C[C@@H]1CCN(S(=O)(=O)c2cc(-c3nc(-c4ccc(Br)c(F)c4)c[nH]3)ccc2Cl)C[C@@H]1O [Example 244] | < 1000 nM
O=S(=O)(c1cc(-c2nc(-c3ccc(Br)c(F)c3)c[nH]2)ccc1Cl)N1CCC[C@H](O)[C@@H](O)C1 [Example 278] | < 1000 nM
COc1cc(-c2c[nH]c(-c3ccc(Cl)c(S(=O)(=O)N4CCC(O)CC4)c3)n2)ccc1Cl [Example 216] | < 1000 nM
O=S(=O)(c1cc(-c2nc(-c3ccc(Br)c(F)c3)c[nH]2)ccc1Cl)N1CCN(S(=O)(=O)C2CC2)CC1 [Example 222] | > 10000 nM
O=S(=O)(c1cc(-c2ncc(-c3ccc(Br)c(F)c3)[nH]2)ccc1Cl)N1CC[C@H](O)C1 [Example 271] | < 1000 nM
O=S(=O)(c1cc(-c2nc(-c3ccc(F)c(Br)c3)c(F)[nH]2)ccc1Cl)N1CCC(O)CC1 [Example 197] | < 1000 nM
O=S(=O)(c1cc(-c2ncc(-c3ccc(Br)c(F)c3)[nH]2)ccc1Cl)N1CCC2(O)CC2C1 (stereo not shown) [Example 256] | < 1000 nM
O=S(=O)(c1cc(-c2nc(-c3ccc(Cl)c(C(F)(F)F)c3)c[nH]2)ccc1Cl)N1CCC(O)CC1 [Example 152] | < 1000 nM
COC(=O)NCCCCCCCNS(=O)(=O)c1cc(-c2nc(-c3ccc(Br)c(F)c3)c[nH]2)ccc1Cl [Example 251] | < 1000 nM
[2H]C([2H])([2H])Oc1cc(-c2c[nH]c(-c3ccc(Cl)c(S(=O)(=O)N4CCC(O)CC4)c3)n2)ccc1F [Example 204] | < 1000 nM
O=S(=O)(c1cc(-c2nc(-c3ccc(Br)c(F)c3)c[nH]2)ccc1Cl)N1C[C@H](O)CC[C@H](O)C1 [Example 284] | < 1000 nM
CC(C)(C)OC(=O)NCCCCCNS(=O)(=O)c1cc(-c2nc(-c3ccc(Br)c(F)c3)c[nH]2)ccc1Cl [Example 176] | < 1000 nM
O=S(=O)(c1cc(-c2nc(-c3ccc(Br)c(F)c3)c[nH]2)ccc1Cl)N1CCN(C2CCCCC2F)CC1 (stereo not shown) [Example 249] | < 1000 nM
CC(C)(C)c1ccc(-c2c[nH]c(-c3ccc(Cl)c(S(=O)(=O)N4CCC(O)CC4)c3)n2)cc1 [Example 158] | < 1000 nM
